According to ChEMBL document CHEMBL1201862, “PubChem BioAssay data set” (2004):
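Briefly, cells in 96-well plates were exposed to five compound concentrations for 48 h, and endpoints were estimated by linear interpolation. GI50 is the concentration that inhibits growth by half.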 Active and inactive are the calls of the source. No stated cut-off is given here; in the data, active = GI50 up to about 1.1 µM and inactive = higher.

Tests used:
Assay in all cases: NCI tumour cell line growth inhibition, 48 h
DLD-1 = system: DLD-1
DMS-114 = system: DMS-114
DMS-273 = system: DMS-273
KM-20L2 = system: KM-20L2
M19-MEL = system: M19-MEL
RXF 631 = system: RXF 631
SNB-78 = system: SNB-78
XF498 = system: XF498
HOP-18 = system: HOP-18

Measured: GI50

CC1CN(c2ccc(Cl)cc2)CC(C)(C)OC(=O)O1 (configuration not stated)
inactive: DLD-1 > 100 µM | DMS-114 > 100 µM | DMS-273 > 100 µM | KM-20L2 > 100 µM | M19-MEL > 100 µM | RXF 631 > 100 µM | SNB-78 > 100 µM | XF498 > 100 µM

Cc1ccc(NC(=O)CCc2nnc3s/c(=C\C=C\c4ccccc4)c(=O)n23)cc1
inactive: DLD-1 > 100 µM | DMS-114 > 100 µM | DMS-273 > 100 µM | HOP-18 90.2 µM | KM-20L2 > 100 µM | M19-MEL 67.5 µM | RXF 631 > 82.4 µM | SNB-78 > 71 µM | XF498 > 100 µM

CCOC(=O)/C(=C/c1ccc(C(F)(F)F)cc1)N(CC)CC
inactive: DLD-1 54.1 µM | DMS-114 30.8 µM | HOP-18 12.5 µM | RXF 631 > 100 µM | SNB-78 81.8 µM | XF498 58.1 µM

O=C(O)C1Cc2[nH]cnc2CN1 (configuration not stated)
inactive: DLD-1 > 100 µM | DMS-114 > 100 µM | DMS-273 > 100 µM | HOP-18 > 100 µM | KM-20L2 > 100 µM | M19-MEL > 100 µM | RXF 631 > 100 µM | SNB-78 > 100 µM

COC(=O)C1CC/C(=N\c2cccc(C(F)(F)F)c2)N1 (configuration not stated)
inactive: DLD-1 > 100 µM | DMS-114 > 100 µM | DMS-273 > 100 µM | HOP-18 > 100 µM | RXF 631 > 100 µM | SNB-78 > 100 µM | XF498 > 100 µM

COc1cc(CC(C)N)ccc1O (configuration not stated)
inactive: DLD-1 > 100 µM | DMS-114 > 100 µM | DMS-273 > 100 µM | HOP-18 > 100 µM | KM-20L2 > 100 µM | RXF 631 > 100 µM | SNB-78 > 100 µM | XF498 > 100 µM

c1ccc(C2Nc3ccccc3C3OCCCC23)cc1 (configuration not stated)
inactive: DLD-1 18.9 µM | DMS-114 21.1 µM | DMS-273 28.2 µM | KM-20L2 18.4 µM | M19-MEL 42.6 µM | RXF 631 35.7 µM | SNB-78 23.9 µM | XF498 56.5 µM

CC12c3ccccc3C(OC=O)(c3ccccc31)C1(C)c3ccccc3C2(OC=O)c2ccccc21
inactive: DLD-1 > 100 µM | DMS-114 > 100 µM | DMS-273 75.7 µM | HOP-18 > 100 µM | KM-20L2 > 100 µM | M19-MEL > 100 µM | RXF 631 > 100 µM | SNB-78 > 100 µM
